Laboratory results published in ChEMBL document CHEMBL6092192 (J Med Chem, 2024).
The source made the active and inactive calls. No cut-off for these calls is given here.

What was measured:
[1] = tested on: HEK293; experiment: Cytotoxicity against HEK293 cells transfected with pcDNA3.1 assessed as survival rate at 2 uM measured after 72 hrs by MTT assay relative to control; type: functional; conditions: Homo sapiens, read-out: Survival
[2] = Cmax in 12 hrs fasted Sprague-Dawley rat at 10 mg/kg, po measured upto 720 mins by HPLC-MS/MS analysis; type: ADME, organism-based; conditions: in vivo
[3] = tested on: SW620/AD300; experiment: Cytotoxicity against multidrug resistant human SW620/AD300 cells assessed as survival rate at 4 uM measured after 72 hrs by MTT assay relative to control; type: functional; conditions: read-out: Survival
[4] = Toxicity in BALB/c nude mouse xenografted with […] CT26/TAXOL cells assessed as change in body weight at 100 mg/kg/day, IG measured upto 14 days in presence of paclitaxel/anti-PD-1; type: organism-based; conditions: in vivo, po, 336 h, time < 14 day
[5] = Half life in 12 hrs fasted Sprague-Dawley rat at 10 mg/kg, po measured upto 720 mins by HPLC-MS/MS analysis; type: ADME, organism-based; conditions: in vivo
[6] = Toxicity in BALB/c nude mouse xenografted with […] CT26/TAXOL cells assessed as effect on spleen at 100 mg/kg/day, IG in presence of paclitaxel measured after 14 days by H and E staining based analysis; type: organism-based; conditions: in vivo, po, 336 h, time 14 day
[7] = AUC (0 to t) in 12 hrs fasted Sprague-Dawley rat at 1 mg/kg, iv measured upto 720 mins by HPLC-MS/MS analysis; type: ADME, organism-based; conditions: in vivo
[8] = Toxicity in BALB/c nude mouse xenografted with […] CT26/TAXOL cells assessed as mortality at 100 mg/kg/day, IG measured upto 14 days; type: organism-based; conditions: in vivo, po, 336 h, time < 14 day
[9] = molecular target: Multidrug resistance-associated protein 1 (Homo sapiens, UniProt P33527); experiment: Induction of thermal stabilization of ABCC1 in human SW620/AD300 cells at 200 uM measured after 30 mins by thermal shift assay; type: cell-based; conditions: sw620/ad300, 0.5 h
Chain of Multidrug resistance-associated protein 1 (P33527 whole entry): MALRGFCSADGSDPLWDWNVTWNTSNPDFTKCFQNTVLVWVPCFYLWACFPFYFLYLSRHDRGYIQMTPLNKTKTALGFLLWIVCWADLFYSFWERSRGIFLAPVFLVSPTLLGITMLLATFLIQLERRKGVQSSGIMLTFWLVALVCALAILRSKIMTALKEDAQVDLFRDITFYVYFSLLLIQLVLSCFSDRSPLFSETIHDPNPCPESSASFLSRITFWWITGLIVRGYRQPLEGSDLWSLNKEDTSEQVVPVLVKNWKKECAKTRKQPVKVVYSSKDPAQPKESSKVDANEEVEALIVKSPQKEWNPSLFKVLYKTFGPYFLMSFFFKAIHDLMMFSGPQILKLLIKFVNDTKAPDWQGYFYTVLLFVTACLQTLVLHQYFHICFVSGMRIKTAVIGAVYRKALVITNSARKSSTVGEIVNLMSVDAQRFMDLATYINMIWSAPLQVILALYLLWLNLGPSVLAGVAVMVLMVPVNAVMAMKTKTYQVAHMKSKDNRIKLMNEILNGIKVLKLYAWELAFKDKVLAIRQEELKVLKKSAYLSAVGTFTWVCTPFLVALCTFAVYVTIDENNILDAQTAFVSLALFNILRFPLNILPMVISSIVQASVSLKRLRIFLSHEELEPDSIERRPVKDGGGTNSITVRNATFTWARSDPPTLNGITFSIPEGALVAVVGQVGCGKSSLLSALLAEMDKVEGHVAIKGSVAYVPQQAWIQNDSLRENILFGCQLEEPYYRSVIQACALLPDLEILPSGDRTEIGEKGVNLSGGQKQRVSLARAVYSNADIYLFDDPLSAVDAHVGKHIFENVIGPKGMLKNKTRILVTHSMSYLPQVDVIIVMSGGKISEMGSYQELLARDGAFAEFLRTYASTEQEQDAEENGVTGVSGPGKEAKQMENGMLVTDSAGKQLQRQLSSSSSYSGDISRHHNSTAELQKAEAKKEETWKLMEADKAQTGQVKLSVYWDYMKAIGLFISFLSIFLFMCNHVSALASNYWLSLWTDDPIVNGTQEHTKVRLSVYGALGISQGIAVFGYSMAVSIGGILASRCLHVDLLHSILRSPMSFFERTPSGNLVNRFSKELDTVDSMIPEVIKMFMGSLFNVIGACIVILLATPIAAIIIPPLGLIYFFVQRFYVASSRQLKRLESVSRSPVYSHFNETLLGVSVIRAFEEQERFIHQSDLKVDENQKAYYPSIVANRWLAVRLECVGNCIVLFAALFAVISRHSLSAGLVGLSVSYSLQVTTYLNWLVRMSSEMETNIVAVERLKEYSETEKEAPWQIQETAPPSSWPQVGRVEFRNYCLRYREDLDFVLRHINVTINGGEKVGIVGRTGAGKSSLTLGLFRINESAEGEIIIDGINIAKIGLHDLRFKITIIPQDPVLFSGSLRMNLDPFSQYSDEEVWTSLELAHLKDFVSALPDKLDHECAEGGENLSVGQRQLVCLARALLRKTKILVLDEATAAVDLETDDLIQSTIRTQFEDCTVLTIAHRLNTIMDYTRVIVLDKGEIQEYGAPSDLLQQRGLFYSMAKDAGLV

[10] = molecular target: Voltage-gated inwardly rectifying potassium channel KCNH2 (Homo sapiens, UniProt Q12809); experiment: Inhibition of human ERG expressed in CHO cells by QPatch assay; type: toxicity, cell-based
Chain of Voltage-gated inwardly rectifying potassium channel KCNH2 (Q12809 whole entry): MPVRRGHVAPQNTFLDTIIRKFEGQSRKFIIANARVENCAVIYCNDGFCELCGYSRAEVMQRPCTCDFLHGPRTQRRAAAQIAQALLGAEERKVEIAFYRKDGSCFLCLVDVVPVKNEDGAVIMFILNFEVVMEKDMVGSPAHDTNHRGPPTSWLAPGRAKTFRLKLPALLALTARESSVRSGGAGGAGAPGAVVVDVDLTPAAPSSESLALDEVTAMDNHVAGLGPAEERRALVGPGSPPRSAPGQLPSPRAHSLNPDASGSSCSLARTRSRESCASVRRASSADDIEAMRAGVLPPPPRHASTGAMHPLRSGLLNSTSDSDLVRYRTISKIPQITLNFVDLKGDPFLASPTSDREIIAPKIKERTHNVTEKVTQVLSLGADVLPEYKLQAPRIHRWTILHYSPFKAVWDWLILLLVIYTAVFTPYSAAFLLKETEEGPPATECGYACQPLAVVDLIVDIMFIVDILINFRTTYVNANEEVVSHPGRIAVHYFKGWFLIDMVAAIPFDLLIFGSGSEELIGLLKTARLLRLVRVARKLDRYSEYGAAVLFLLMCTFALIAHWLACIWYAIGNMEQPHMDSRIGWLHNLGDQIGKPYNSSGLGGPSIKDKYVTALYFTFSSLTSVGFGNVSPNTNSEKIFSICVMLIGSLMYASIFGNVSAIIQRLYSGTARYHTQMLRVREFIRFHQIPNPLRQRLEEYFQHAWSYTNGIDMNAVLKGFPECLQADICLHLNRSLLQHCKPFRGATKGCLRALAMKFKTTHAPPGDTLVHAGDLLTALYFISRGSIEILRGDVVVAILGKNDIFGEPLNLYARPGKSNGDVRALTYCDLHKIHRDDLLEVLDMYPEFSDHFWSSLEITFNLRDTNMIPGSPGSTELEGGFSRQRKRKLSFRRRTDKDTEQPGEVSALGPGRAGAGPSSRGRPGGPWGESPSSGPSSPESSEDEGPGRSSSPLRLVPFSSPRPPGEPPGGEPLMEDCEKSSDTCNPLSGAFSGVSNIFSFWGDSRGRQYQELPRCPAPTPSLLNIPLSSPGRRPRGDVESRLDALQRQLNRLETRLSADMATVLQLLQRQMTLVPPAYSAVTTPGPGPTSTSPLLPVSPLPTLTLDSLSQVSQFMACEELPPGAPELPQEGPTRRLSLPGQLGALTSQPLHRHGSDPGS

[11] = Toxicity in BALB/c nude mouse xenografted with […] CT26/TAXOL cells assessed as effect on kidney at 100 mg/kg/day, IG in presence of paclitaxel measured after 14 days by H and E staining based analysis; type: organism-based; conditions: in vivo, po, 336 h, time 14 day
[12] = Reversal of paclitaxel resistance in HEK293 cells harbouring ABCB1 assessed as reversal fold by measuring ratio of paclitaxel IC50 to paclitaxel IC50 in presence of test compound at 4 uM incubated for 72 hrs by MTT assay; type: functional, Homo sapiens
[13] = tested on: HEK293; experiment: Cytotoxicity against HEK293 cells harbouring ABCB1 assessed as survival rate at 5 uM measured after 72 hrs by MTT assay relative to control; type: functional; conditions: Homo sapiens, read-out: Survival
[14] = tested on: CT26/TAXOL; experiment: Antitumor T-cell immune response in […] cells xenografted in BALB/c nude mouse model at 100 mg/kg/day, IG in presence of anti-PD-1/paclitaxel measured after 14 days; type: functional, organism-based; conditions: time 14.0 day
[15] = Toxicity in BALB/c nude mouse xenografted with […] CT26/TAXOL cells assessed as effect on liver at 100 mg/kg/day, IG in presence of paclitaxel/anti-PD-1 measured after 14 days by H and E staining based analysis; type: organism-based; conditions: in vivo, po, 336 h, time 14 day
[16] = tested on: KB 3-1; experiment: Cytotoxicity against human KB 3-1 cells assessed as survival rate at 5 uM measured after 72 hrs by MTT assay relative to control; type: functional; conditions: read-out: Survival
[17] = Tmax in 12 hrs fasted Sprague-Dawley rat at 10 mg/kg, po measured upto 720 mins by HPLC-MS/MS analysis; type: ADME, organism-based; conditions: in vivo
[18] = MRT (0 to t) in 12 hrs fasted Sprague-Dawley rat at 1 mg/kg, iv measured upto 720 mins by HPLC-MS/MS analysis; type: ADME, organism-based; conditions: in vivo
[19] = Toxicity in BALB/c nude mouse xenografted with […] CT26/TAXOL cells assessed as effect on heart at 100 mg/kg/day, IG in presence of paclitaxel measured after 14 days by H and E staining based analysis; type: organism-based; conditions: in vivo, po, 336 h, time 14 day
[20] = Toxicity in Sprague-Dawley rat assessed as change in body weight at 250 to 1000 mg/kg, po measured for 14 days administered as single dose; type: organism-based; conditions: in vivo, 336 h, dose 250-1000 mg/kg, time 14 day
[21] = Reversal of paclitaxel resistance in HEK293 cells harbouring ABCB1 assessed as reversal fold by measuring ratio of paclitaxel IC50 to paclitaxel IC50 in presence of test compound at 2 uM incubated for 72 hrs by MTT assay; type: functional, Homo sapiens
[22] = Clearance in 12 hrs fasted Sprague-Dawley rat at 1 mg/kg, iv measured upto 720 mins by HPLC-MS/MS analysis; type: ADME, organism-based; conditions: in vivo
[23] = Toxicity in BALB/c nude mouse xenografted with […] CT26/TAXOL cells assessed as mortality at 100 mg/kg/day, IG measured upto 14 days in presence of paclitaxel/anti-PD-1; type: organism-based; conditions: in vivo, po, 336 h, time < 14 day
[24] = Toxicity in BALB/c nude mouse xenografted with […] CT26/TAXOL cells assessed as effect on spleen at 100 mg/kg/day, IG measured after 14 days by H and E staining based analysis; type: organism-based; conditions: in vivo, po, 336 h, time 14 day
[25] = AUC (0 to infinity) in 12 hrs fasted Sprague-Dawley rat at 10 mg/kg, po measured upto 720 mins by HPLC-MS/MS analysis; type: ADME, organism-based; conditions: in vivo
[26] = molecular target: ATP-dependent translocase ABCB1 (Homo sapiens, UniProt P08183); experiment: Inhibition of ABCB1 in human SW620/AD300 cells assessed as decrease in [3H]-PTX efflux at 4 uM measured after 120 mins (Rvb <95%); type: cell-based; conditions: 2 h
Chain of ATP-dependent translocase ABCB1 (P08183 whole entry): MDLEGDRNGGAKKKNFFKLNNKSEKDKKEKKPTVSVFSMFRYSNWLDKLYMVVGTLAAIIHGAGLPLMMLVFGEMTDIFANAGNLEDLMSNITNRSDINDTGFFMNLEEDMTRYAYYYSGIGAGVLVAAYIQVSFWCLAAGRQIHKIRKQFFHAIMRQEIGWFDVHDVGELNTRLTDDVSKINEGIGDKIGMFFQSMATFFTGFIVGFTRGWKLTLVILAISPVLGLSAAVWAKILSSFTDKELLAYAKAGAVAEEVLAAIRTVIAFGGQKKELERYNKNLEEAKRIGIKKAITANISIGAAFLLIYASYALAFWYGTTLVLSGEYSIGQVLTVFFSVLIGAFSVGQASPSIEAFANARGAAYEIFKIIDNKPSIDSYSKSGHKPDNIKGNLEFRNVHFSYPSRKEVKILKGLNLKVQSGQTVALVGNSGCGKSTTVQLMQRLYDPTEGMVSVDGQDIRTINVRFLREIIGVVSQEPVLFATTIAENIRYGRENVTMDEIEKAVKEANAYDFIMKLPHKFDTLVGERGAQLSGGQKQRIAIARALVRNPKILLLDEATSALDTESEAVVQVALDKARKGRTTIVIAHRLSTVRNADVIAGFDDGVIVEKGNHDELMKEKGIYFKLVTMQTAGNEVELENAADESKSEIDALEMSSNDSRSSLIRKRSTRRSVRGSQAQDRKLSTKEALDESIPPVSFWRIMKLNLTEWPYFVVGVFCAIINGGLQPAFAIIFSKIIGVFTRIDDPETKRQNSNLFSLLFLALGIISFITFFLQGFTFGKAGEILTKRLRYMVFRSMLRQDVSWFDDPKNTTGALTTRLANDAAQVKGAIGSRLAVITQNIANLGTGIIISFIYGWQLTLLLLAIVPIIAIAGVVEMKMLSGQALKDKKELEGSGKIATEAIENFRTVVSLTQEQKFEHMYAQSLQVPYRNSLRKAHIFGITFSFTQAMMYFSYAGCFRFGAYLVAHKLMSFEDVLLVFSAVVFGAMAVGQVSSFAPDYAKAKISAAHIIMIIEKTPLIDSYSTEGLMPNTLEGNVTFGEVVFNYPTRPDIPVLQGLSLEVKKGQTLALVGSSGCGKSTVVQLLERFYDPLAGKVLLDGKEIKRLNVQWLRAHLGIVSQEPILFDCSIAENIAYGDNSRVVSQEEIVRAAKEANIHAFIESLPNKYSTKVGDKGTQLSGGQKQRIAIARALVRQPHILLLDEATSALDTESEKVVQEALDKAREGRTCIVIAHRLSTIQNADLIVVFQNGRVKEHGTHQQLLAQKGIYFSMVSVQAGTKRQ

[27] = Cmax in 12 hrs fasted Sprague-Dawley rat at 1 mg/kg, iv measured upto 720 mins by HPLC-MS/MS analysis; type: ADME, organism-based; conditions: in vivo
[28] = AUC (0 to infinity) in 12 hrs fasted Sprague-Dawley rat at 1 mg/kg, iv measured upto 720 mins by HPLC-MS/MS analysis; type: ADME, organism-based; conditions: in vivo
[29] = Toxicity in BALB/c nude mouse xenografted with […] CT26/TAXOL cells assessed as effect on lung at 100 mg/kg/day, IG in presence of paclitaxel measured after 14 days by H and E staining based analysis; type: organism-based; conditions: in vivo, po, 336 h, time 14 day
[30] = Toxicity in BALB/c nude mouse xenografted with […] CT26/TAXOL cells assessed as effect on liver at 100 mg/kg/day, IG measured after 14 days by H and E staining based analysis; type: organism-based; conditions: in vivo, po, 336 h, time 14 day
[31] = tested on: SW620/AD300; experiment: Cytotoxicity against multidrug resistant human SW620/AD300 cells assessed as survival rate at 2 uM measured after 72 hrs by MTT assay relative to control; type: functional; conditions: read-out: Survival
[32] = tested on: CT26/TAXOL; experiment: Antitumor T-cell immune response in […] cells xenografted in BALB/c nude mouse model assessed as reduction in tumor growth at 100 mg/kg/day, IG measured after 14 days; type: functional, organism-based; conditions: time 14.0 day
[33] = tested on: CT26/TAXOL; experiment: Antitumor T-cell immune response in […] cells xenografted in BALB/c nude mouse model assessed as increase in CD8+ T-cell infiltration at 100 mg/kg/day, IG in presence of anti-PD-1/paclitaxel measured after 14 days by immunofluorescence staining based analysis; type: functional, organism-based; conditions: time 14.0 day

O=c1c2c([nH]c3nc(SCc4nc5ccccc5s4)nn13)CCC2
viability at 2 µM [1]: 97.8% | Cmax [2]: 504 ng/mL | viability at 4 µM [3]: 95.6% | Activity [4]: Non-toxic | half-life [5]: 4.07 h | Activity [6]: Non-toxic | AUC(0-t) at 12 h [7]: 880 ng·h/mL | Activity [8]: Non-toxic | Activity [9]: Not_active | IC50 [10]: > 50 µM | Activity [11]: Non-toxic | Ratio IC50 [12]: 28.25 | viability at 5 µM [13]: 91.2% | Activity [14]: Active | Activity [15]: Non-toxic | viability at 5 µM [16]: 95.9% | Tmax [17]: 6 h | MRT last at 12 h [18]: 4.42 h | Activity [19]: Non-toxic | Activity [20]: Non-toxic | Ratio IC50 [21]: 7.82 | clearance [22]: 18.3 mL/min/kg | Activity [23]: Non-toxic | Activity [24]: Non-toxic | AUC(0-inf) [25]: 5840 ng·h/mL | inhibition at 4 µM [26]: 71% | Cmax [27]: 380 ng/mL | AUC(0-inf) [28]: 915 ng·h/mL | Activity [29]: Non-toxic | Activity [30]: Non-toxic | viability at 2 µM [31]: 98.5% | Activity [32]: Not active; Compound Showed Negligible Effect | Activity [33]: Active
